Data published in patent US9540314B2, “N-cycloalkyl-N-[(cycloalkenylphenyl)methylene]-(thio) carboxamide derivatives” (BAYER INTELLECTUAL PROPERTY GMBH, priority 2012, dated 2017).

Assays:
Alternaria brassicae = assay: In vivo preventive test on Alternaria brassicae (leaf spot on radish); conditions: Table C1, 500 ppm, radish plants, grading 6 days after contamination
Experimental: (§1) The active ingredients tested are prepared by homogenization in a mixture of acetone/tween/DMSO, and then diluted with water to obtain the desired active material concentration.
Radish plants (“Pernod Clair” variety), sown in starter cups on a 50/50 peat soil pozzolana substrate and grown at 17° C., are treated at the cotyledon stage by spraying with the active ingredient prepared as described above. Plants, used as controls, are treated with the mixture of acetone/tween/DMSO/water not containing the active material.
After 24 hours, the plants are contaminated by spraying the cotyledons with an aqueous suspension of Alternaria brassicae spores (50 000 spores per mL). The spores are collected from a 15-day-old culture.
The contaminated radish plants are incubated at 20° C. and at 100% relative humidity.
Grading (% of efficacy) is carried out 6 days after the contamination, in comparison with the control plants.
Under these conditions, high (at least 80%) to excellent (at least 90%) protection is observed at a dose of 500 ppm of active ingredient with the following compounds from table C1: […]

Puccinia recondita = assay: In vivo preventive test on Puccinia recondita (brown rust on wheat); conditions: 500 ppm of active ingredient; wheat plants, preventive spray; grading 12 days after contamination
Outline: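 Wheat ("Scipion") at the 1-leaf stage was sprayed with compound in acetone/tween/DMSO/water, then inoculated 24 h later with Puccinia recondita spores (100 000 spores per mL). Plants were held 24 h at 20° C and 100% RH, then 10 days at 20° C and 70-80% RH. Efficacy (%) was graded 12 days post-inoculation against solvent-treated controls.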

Venturia inaequalis = assay: In vivo preventive test on Venturia inaequalis (apples); conditions: 100 ppm, evaluated 10 days after inoculation
Experimental: (§2) To produce a suitable preparation of active compound, 1 part by weight of active compound is mixed with the stated amounts of solvent and emulsifier, and the concentrate is diluted with water to the desired concentration.
To test for preventive activity, young plants are sprayed with the preparation of active compound at the stated rate of application. After the spray coating has dried on, the plants are inoculated with an aqueous conidia suspension of the causal agent of apple scab (Venturia inaequalis) and then remain for 1 day in an incubation cabinet at approximately 20° C. and a relative atmospheric humidity of 100%.
The plants are then placed in a greenhouse at approximately 21° C. and a relative atmospheric humidity of approximately 90%.
The test is evaluated 10 days after the inoculation. 0% means an efficacy which corresponds to that of the untreated control, while an efficacy of 100% means that no disease is observed.
Under these conditions, excellent (at least 95%) protection is observed at a dose of 100 ppm of active ingredient with the following compound from table D: […]

Sphaerotheca fuliginea = assay: In vivo preventive test on Sphaerotheca fuliginea (powdery mildew on cucurbits); conditions: 500 ppm, gherkin plants, grading 12 days after contamination
Experimental: The active ingredients tested are prepared by homogenization in a mixture of acetone/tween/DMSO and then diluted with water to obtain the desired active material concentration.
Gherkin plants (“Vert petit de Paris” variety), sown in starter cups on a 50/50 peat soil-pozzolana substrate and grown at 24° C., are treated at the Z11 cotyledon stage by spraying with the active ingredient prepared as described above. Plants, used as controls, are treated with the mixture of acetone/tween/DMSO/water not containing the active material.
After 24 hours, the plants are contaminated by spraying the cotyledons with an aqueous suspension of Sphaerotheca fuliginea spores (100 000 spores per mL). The spores are collected from infected plants. The contaminated gherkin plants are incubated at about 20° C. and at 70-80% relative humidity.
Grading (% of efficacy) is carried out 12 days after the contamination, in comparison with the control plants.
Under these conditions, good (at least 70%) to total protection is observed at a dose of 500 ppm of active ingredient with the following compounds from table A: […]

Leptosphaeria nodorum = assay: In vivo preventive test on Leptosphaeria nodorum (wheat); conditions: 100 ppm, evaluated 7-9 days after inoculation
Experimental: Solvent: 49 parts by weight of N,N-dimethylacetamide
Emulsifier: 1 part by weight of alkylarylpolyglycol ether
To produce a suitable preparation of active compound, 1 part by weight of active compound or active compound combination is mixed with the stated amounts of solvent and emulsifier, and the concentrate is diluted with water to the desired concentration.
To test for preventive activity, young plants are sprayed with the preparation of active compound or active compound combination at the stated rate of application.
After the spray coating has been dried, the plants are sprayed with a spore suspension of Leptosphaeria nodorum. The plants remain for 48 hours in an incubation cabinet at approximately 20° C. and a relative atmospheric humidity of approximately 100%.
The plants are placed in the greenhouse at a temperature of approximately 22° C. and a relative atmospheric humidity of approximately 80%.
The test is evaluated 7-9 days after the inoculation. 0% means an efficacy which corresponds to that of the untreated control, while an efficacy of 100% means that no disease is observed.
Under these conditions, excellent (at least 95%) protection is observed at a dose of 100 ppm of active ingredient with the following compound from table G: […]

Septoria tritici = assay: In vivo preventive test on Septoria tritici (wheat); conditions: 500 ppm of active ingredient; wheat plants, preventive spray; grading 24 days after contamination
Experimental: as §1
Wheat plants (“Scipion” variety), sown in starter cups on a 50/50 peat soil pozzolana substrate and grown at 22° C., are treated at the 1 leaf stage (10 cm height) by spraying with the active ingredient prepared as described above. Plants, used as controls, are treated with the mixture of acetone/tween/DMSO/water not containing the active material.
After 24 hours, the plants are contaminated by spraying the leaves with an aqueous suspension of cryopreserved Septoria tritici spores (500 000 spores per mL). The contaminated wheat plants are incubated for 72 hours at 18° C. and at 100% relative humidity, and then for 21 days at 90% relative humidity.
Grading (% of efficacy) is carried out 24 days after the contamination, in comparison with the control plants.
Under these conditions, good (at least 70%) to total protection is observed at a dose of 500 ppm of active ingredient with the following compounds from table J: […]

Botrytis cinerea = assay: In vivo preventive test on Botrytis cinerea (beans)
Experimental: as §2
To test for preventive activity, young plants are sprayed with the preparation of active compound. After the spray coating has dried on, 2 small pieces of agar covered with growth of Botrytis cinerea are placed on each leaf. The inoculated plants are placed in a darkened chamber at 20° C. and a relative atmospheric humidity of 100%.
2 days after the inoculation, the size of the lesions on the leaves is evaluated. 0% means an efficacy which corresponds to that of the untreated control, while an efficacy of 100% means that no disease is observed.
Under these conditions, excellent (at least 95%) protection is observed at a dose of 100 ppm of active ingredient with the following compound from table E1: […]

`Cc1nn(C)c(F)c1C(=O)N(C1CC1)C(C)c1ccccc1C1=CCCC1` (racemic) [I.1] was tested. Which Efficacy (Alternaria brassicae) did it give?
The Efficacy was 98%.

What about the Efficacy (Puccinia recondita) of the same compound?
The Efficacy was 81%.

And the Efficacy (Venturia inaequalis)?
The Efficacy was 98%.

And the Efficacy (Sphaerotheca fuliginea)?
Its Efficacy is 100%.

And the Efficacy (Leptosphaeria nodorum)?
Its Efficacy is 95%.

What about the Efficacy (Septoria tritici) of the same compound?
The Efficacy was 97%.

And the Efficacy (Botrytis cinerea; Table E1, 100 ppm, lesion size 2 days after inoculation)?
The Efficacy was 98%.

What about the Efficacy (Botrytis cinerea; Table E2, dose 100 ppm, 2 days after inoculation) of the same compound?
Its Efficacy is 98%.

And the Efficacy (Botrytis cinerea; Table E2, dose 100 ppm, 2 days after inoculation, listed as 1.1)?
Its Efficacy is “at least 95%”.

What about the Efficacy (Botrytis cinerea; Table E2, dose 250 ppm, 2 days after inoculation) of the same compound?
Its Efficacy is 98%.

What about the Efficacy (Botrytis cinerea; Table E2, dose 250 ppm, 2 days after inoculation, listed as 1.1) of the same compound?
Its Efficacy is “at least 95%”.
